Experimental data taken from the supplement of paper PMC10307832.

What was measured:
Assay in all cases: relative viability (nuclei count vs DMSO), 5 days (fraction); higher = more cells survive
Venetoclax + Tozasertib = compound: CC1(C)CCC(CN2CCN(c3ccc(C(=O)NS(=O)(=O)c4ccc(NCC5CCOCC5)c([N+](=O)[O-])c4)c(Oc4cnc5[nH]ccc5c4)c3)CC2)=C(c2ccc(Cl)cc2)C1 [Venetoclax] + Cc1cc(Nc2cc(N3CCN(C)CC3)nc(Sc3ccc(NC(=O)C4CC4)cc3)n2)n[nH]1 [Tozasertib] (partner 0.1 µM)
Method in brief: (§1)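 One day after seeding in 1536-well plates, lung cancer cell lines were dosed by pin tool. Dosing was either single-drug or a fixed anchor-drug dose plus five library-drug doses (not always all listed) in √10 steps. After 5 days, nuclei were stained in one fix-and-stain step and counted on 4× images, and relative viability is the nuclei count of treated wells over that of vehicle wells, given as the median of duplicate plates.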

Selumetinib + Navitoclax = compound: Cn1cnc2c(F)c(Nc3ccc(Br)cc3Cl)c(C(=O)NOCCO)cc21 [Selumetinib] + CC1(C)CCC(c2ccc(Cl)cc2)=C(CN2CCN(c3ccc(C(=O)NS(=O)(=O)c4ccc(N[C@H](CCN5CCOCC5)CSc5ccccc5)c(S(=O)(=O)C(F)(F)F)c4)cc3)CC2)C1 [Navitoclax] (partner 0.5 µM)
Method in brief: as §1

Selumetinib + Crizotinib = compound: Cn1cnc2c(F)c(Nc3ccc(Br)cc3Cl)c(C(=O)NOCCO)cc21 [Selumetinib] + C[C@@H](Oc1cc(-c2cnn(C3CCNCC3)c2)cnc1N)c1c(Cl)ccc(F)c1Cl [Crizotinib] (partner 1 µM)
Method in brief: as §1

Selumetinib + Pemetrexed = compound: Cn1cnc2c(F)c(Nc3ccc(Br)cc3Cl)c(C(=O)NOCCO)cc21 [Selumetinib] + Nc1nc2[nH]cc(CCc3ccc(C(=O)N[C@@H](CCC(=O)O)C(=O)O)cc3)c2c(=O)[nH]1 [Pemetrexed] (partner 0.2 µM)
Method in brief: as §1

Row | Cell Line | relative viability (Venetoclax + Tozasertib; first compound 0.01 µM) | relative viability (Venetoclax + Tozasertib; first compound 0.03162 µM) | relative viability (Venetoclax + Tozasertib; first compound 0.1 µM) | relative viability (Venetoclax + Tozasertib; first compound 0.3162 µM) | relative viability (Venetoclax + Tozasertib; first compound 1 µM) | relative viability (Selumetinib + Navitoclax; first compound 0.02 µM) | relative viability (Selumetinib + Navitoclax; first compound 0.06325 µM) | relative viability (Selumetinib + Navitoclax; first compound 0.2 µM) | relative viability (Selumetinib + Navitoclax; first compound 0.6325 µM) | relative viability (Selumetinib + Crizotinib; first compound 0.02 µM) | relative viability (Selumetinib + Crizotinib; first compound 0.06325 µM) | relative viability (Selumetinib + Crizotinib; first compound 0.2 µM) | relative viability (Selumetinib + Crizotinib; first compound 0.6325 µM) | relative viability (Selumetinib + Pemetrexed; first compound 0.02 µM) | relative viability (Selumetinib + Pemetrexed; first compound 0.06325 µM) | relative viability (Selumetinib + Pemetrexed; first compound 0.2 µM) | relative viability (Selumetinib + Pemetrexed; first compound 0.6325 µM)
1 | HCC-78 | 0.349 | 0.454 | 1.29 | 0.404 | 0.497 | 0.77 | 0.758 | 0.69 | 0.738 | 0.276 | 0.306 | 0.281 | 0.299 | 0.836 | 0.892 | 0.918 | 0.903
2 | HOP-62 | 0.414 | 0.321 | 0.409 | 0.31 | 0.313 | 1.01 | 0.997 | 0.929 | 0.517 | 0.841 | 0.877 | 0.909 | 0.515 | 0.31 | 0.382 | 0.348 | 0.321
3 | NCI-H1623 | 0.444 | 0.506 | 0.411 | 0.411 | 0.403 |  |  |  |  |  |  |  |  |  |  |  | 
4 | NCI-H3122 | 0.422 | 0.565 | 0.357 | 0.392 | 0.405 | 0.937 | 0.852 | 0.908 | 0.808 | 0.238 | 0.234 | 0.23 | 0.236 | 0.181 | 0.171 | 0.156 | 0.169
5 | RERF-LC-KJ | 0.444 | 0.504 | 0.533 | 0.45 | 0.443 | 0.726 | 0.819 | 0.939 | 0.758 | 0.844 | 0.842 | 0.788 | 0.77 | 0.429 | 0.459 | 0.492 | 0.472
6 | NCI-H1703 |  |  |  |  |  | 1.12 | 0.875 | 1.29 | 1.1 | 0.664 | 0.653 | 0.647 | 0.616 |  |  |  | 
7 | HCC-15 | 0.45 | 0.47 | 0.371 | 0.324 | 0.273 | 0.507 | 0.397 | 0.32 | 0.199 | 0.669 | 0.498 | 0.395 | 0.256 | 0.194 | 0.221 | 0.203 | 0.214
8 | NCI-H1666 | 0.706 | 0.589 | 0.623 | 0.622 | 0.587 | 0.773 | 0.582 | 0.592 | 0.479 | 0.956 | 0.791 | 0.829 | 0.614 | 0.811 | 0.775 | 0.765 | 0.755
9 | NCI-H1395 | 0.851 | 0.85 | 0.705 | 0.782 | 0.762 | 1.08 | 1.13 | 1.22 | 1.28 |  |  |  |  | 0.837 | 0.868 | 0.694 | 0.92
10 | LCLC-97TM1 | 0.302 | 0.27 | 0.207 | 0.185 | 0.202 | 0.497 | 0.606 | 0.368 | 0.309 | 0.527 | 0.496 | 0.467 | 0.504 | 0.186 | 0.237 | 0.219 | 0.258
11 | NCI-H1299 |  |  |  |  |  | 1.02 | 1.09 | 1.05 | 0.899 | 1.06 | 0.961 | 0.939 | 0.84 |  |  |  | 
12 | NCI-H1563 |  |  |  |  |  |  |  |  |  | 0.858 | 0.825 | 0.865 | 0.781 | 0.835 | 0.778 | 0.918 | 0.898
13 | HCC-827 | 0.417 | 0.413 | 0.4 | 0.416 | 0.385 | 0.978 | 1.04 | 1.03 | 1.04 | 0.945 | 0.913 | 0.869 | 0.83 | 0.25 | 0.277 | 0.269 | 0.288
14 | NCI-H1651 | 0.751 | 0.681 | 0.636 | 0.639 | 0.599 | 1.1 | 0.941 | 0.887 | 0.846 | 0.973 | 0.8 | 0.821 | 0.766 | 0.623 | 0.57 | 0.596 | 0.626
15 | HCC-366 | 0.094 | 0.119 | 0.123 | 0.0769 | 0.0514 | 1.11 | 0.954 | 0.917 | 0.757 | 0.492 | 0.462 | 0.308 | 0.238 | 0.224 | 0.191 | 0.234 | 0.206
16 | EKVX | 0.403 | 0.392 | 0.435 | 0.324 | 0.309 | 0.689 | 0.82 | 0.559 | 0.487 | 0.909 | 0.889 | 0.614 | 0.639 | 0.342 | 0.361 | 0.323 | 0.307
17 | NCI-H2228 | 0.251 | 0.313 | 0.288 | 0.246 | 0.25 | 0.928 | 0.678 | 0.789 | 0.729 | 0.527 | 0.595 | 0.351 | 0.413 | 0.375 | 0.394 | 0.333 | 0.33
18 | LK-2 | 0.154 | 0.18 | 0.19 | 0.18 | 0.192 | 0.88 | 0.896 | 0.838 | 1.06 | 0.239 | 0.234 | 0.229 | 0.262 | 0.282 | 0.349 | 0.352 | 0.375
19 | NCI-H1650 | 0.456 | 0.409 | 0.427 | 0.406 | 0.299 | 1 | 0.893 | 0.904 | 1.01 | 0.97 | 0.863 | 0.888 | 0.786 | 0.304 | 0.338 | 0.331 | 0.295
20 | COR-L23 | 0.206 | 0.217 | 0.231 | 0.16 | 0.182 | 1.05 | 0.926 | 1.06 | 1.04 | 0.798 | 0.653 | 0.556 | 0.622 | 0.202 | 0.217 | 0.21 | 0.194
21 | ABC-1 | 0.16 | 0.17 | 0.178 | 0.156 | 0.219 |  |  |  |  | 1.57 | 1.03 | 1.11 | 1.12 |  |  |  | 
